# Assay results reported in ChEMBL document CHEMBL3400149, “Discovery of novel spiro 1,3,4-thiadiazolines as potent, orally bioavailable and brain penetrant KSP inhibitors” (Bioorg Med Chem, 2015).
# Active and inactive are the calls of the source. No cut-off for these calls is given here.
# Assays:
# [1] = target: T1, Kinesin-like protein KIF11 (Homo sapiens, UniProt P52732); test: Inhibition of KSP in human HCT116 cells assessed as phos-histone H3 level by immunofluorescent assay; type: cell-based, HCT-116
# T1 sequence (P52732 whole entry): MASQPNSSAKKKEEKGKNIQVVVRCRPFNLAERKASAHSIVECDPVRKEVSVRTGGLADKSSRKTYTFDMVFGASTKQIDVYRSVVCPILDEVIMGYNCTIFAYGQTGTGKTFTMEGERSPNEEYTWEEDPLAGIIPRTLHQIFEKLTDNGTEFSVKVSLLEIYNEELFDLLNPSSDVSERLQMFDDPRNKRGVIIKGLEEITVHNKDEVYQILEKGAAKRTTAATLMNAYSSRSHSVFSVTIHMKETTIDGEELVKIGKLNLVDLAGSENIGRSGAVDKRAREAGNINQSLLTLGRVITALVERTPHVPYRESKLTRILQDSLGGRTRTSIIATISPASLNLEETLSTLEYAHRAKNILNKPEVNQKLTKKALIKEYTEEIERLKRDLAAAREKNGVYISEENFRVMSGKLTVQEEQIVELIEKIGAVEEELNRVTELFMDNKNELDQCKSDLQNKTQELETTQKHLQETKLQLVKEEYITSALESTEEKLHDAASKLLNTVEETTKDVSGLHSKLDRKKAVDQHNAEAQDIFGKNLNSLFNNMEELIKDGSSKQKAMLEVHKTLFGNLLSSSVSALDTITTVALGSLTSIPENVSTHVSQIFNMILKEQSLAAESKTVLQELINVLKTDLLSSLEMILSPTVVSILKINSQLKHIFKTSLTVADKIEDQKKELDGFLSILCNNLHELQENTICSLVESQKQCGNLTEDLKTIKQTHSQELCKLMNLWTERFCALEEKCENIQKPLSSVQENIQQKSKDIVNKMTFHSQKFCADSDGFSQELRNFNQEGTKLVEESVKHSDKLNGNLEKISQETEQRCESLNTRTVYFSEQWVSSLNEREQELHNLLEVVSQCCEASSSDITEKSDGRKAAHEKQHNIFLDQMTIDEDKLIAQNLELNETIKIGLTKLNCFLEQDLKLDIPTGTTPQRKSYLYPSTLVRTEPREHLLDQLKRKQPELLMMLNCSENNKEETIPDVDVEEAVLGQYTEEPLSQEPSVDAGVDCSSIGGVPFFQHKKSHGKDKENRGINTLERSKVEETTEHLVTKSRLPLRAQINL
# [2] = AUC in CD1 mouse at 10 mg/kg, po; type: ADME, organism-based; set-up: dose 10 mg/kg, route oral; settings: plasma
# [3] = AUC in CD1 mouse at 5 mg/kg, iv; type: ADME, organism-based; set-up: dose 5 mg/kg, route intravenous; settings: plasma
# [4] = Cmax in CD1 mouse at 10 mg/kg, po; type: ADME, organism-based; set-up: dose 10 mg/kg, route oral; settings: in vivo
# [5] = Clearance in CD1 mouse at 5 mg/kg, iv; type: ADME, organism-based; set-up: dose 5 mg/kg, route intravenous; settings: in vivo
# [6] = Oral bioavailability in CD1 mouse at 10 mg/kg; type: ADME, organism-based; settings: in vivo
# [7] = Oral bioavailability in CD1 mouse at 5 mg/kg; type: ADME, organism-based; settings: in vivo
# [8] = AUC in Sprague-Dawley rat at 1 mg/kg, iv; type: ADME, organism-based; set-up: dose 1 mg/kg, route intravenous; settings: plasma
# [9] = Half life in CD1 mouse at 5 mg/kg, iv; type: ADME, organism-based; set-up: dose 5 mg/kg, route intravenous; settings: in vivo
# [10] = Cmax in Sprague-Dawley rat at 50 mg/kg, po; type: ADME, organism-based; set-up: dose 50 mg/kg, route oral; settings: in vivo
# [11] = AUC in beagle dog at 5 mg/kg, po; type: ADME, organism-based, Canis lupus familiaris; set-up: dose 5 mg/kg, route oral; settings: plasma
# [12] = Cmax in beagle dog at 5 mg/kg, po; type: ADME, organism-based, Canis lupus familiaris; set-up: dose 5 mg/kg, route oral; settings: in vivo
# [13] = Retention time of the compound; type: physicochemical
# HCT-116 [14] = test: Induction of mitotic arrest in human HCT116 cells assessed as increase in 4N DNA content at 1.6 nM after 16 hrs by propidium iodine staining based FACS analysis; type: functional
# [15] = Half life in Sprague-Dawley rat at 1 mg/kg, iv; type: ADME, organism-based; set-up: dose 1 mg/kg, route intravenous; settings: in vivo
# [16] = Volume of distribution at steady state in CD1 mouse at 5 mg/kg, iv; type: ADME, organism-based; set-up: dose 5 mg/kg, route intravenous; settings: in vivo, read-out: Vdss
# [17] = AUC in Sprague-Dawley rat at 50 mg/kg, po; type: ADME, organism-based; set-up: dose 50 mg/kg, route oral; settings: plasma
# HCT-116 [18] = test: Induction of mitotic arrest in human HCT116 cells assessed as increase in […] spindle formation at 6.25 nM after 16 hrs by propidium iodine staining based FACS analysis; type: functional, cell-based
# [19] = Clearance in Sprague-Dawley rat at 1 mg/kg, iv; type: ADME, organism-based; set-up: dose 1 mg/kg, route intravenous; settings: in vivo
# [20] = AUC in beagle dog at 1 mg/kg, iv; type: ADME, organism-based, Canis lupus familiaris; set-up: dose 1 mg/kg, route intravenous; settings: plasma
# [21] = Half life in beagle dog at 1 mg/kg, iv; type: ADME, organism-based, Canis lupus familiaris; set-up: dose 1 mg/kg, route intravenous; settings: in vivo
# [22] = Volume of distribution at steady state in Sprague-Dawley rat at 1 mg/kg, iv; type: ADME, organism-based; set-up: dose 1 mg/kg, route intravenous; settings: in vivo, read-out: Vdss
# [23] = Oral bioavailability in beagle dog at 5 mg/kg; type: ADME, organism-based, Canis lupus familiaris; settings: in vivo
# [24] = Clearance in beagle dog at 1 mg/kg, iv; type: ADME, organism-based, Canis lupus familiaris; set-up: dose 1 mg/kg, route intravenous; settings: in vivo
# [25] = Cmax in CD1 mouse at 5 mg/kg, po; type: ADME, organism-based; set-up: dose 5 mg/kg, route oral; settings: in vivo
# [26] = Oral bioavailability in Sprague-Dawley rat at 50 mg/kg; type: ADME, organism-based; settings: in vivo
# HCT-116 [27] = test: Induction of mitotic arrest in human HCT116 cells assessed as increase mitosis at 1.6 nM after 24 hrs by propidium iodine staining based FACS analysis; type: functional, cell-based
# [28] = Volume of distribution at steady state in beagle dog at 1 mg/kg, iv; type: ADME, organism-based, Canis lupus familiaris; set-up: dose 1 mg/kg, route intravenous; settings: in vivo, read-out: Vdss
# [29] = AUC in CD1 mouse at 5 mg/kg, po; type: ADME, organism-based; set-up: dose 5 mg/kg, route oral; settings: plasma
# [30] = Cmax in Sprague-Dawley rat at 10 mg/kg, po; type: ADME, organism-based; set-up: dose 10 mg/kg, route oral; settings: in vivo
# [31] = Permeability across basolateral to apical side in human Caco2 cells; type: ADME, cell-based; settings: Caco-2, read-out: permeability
# [32] = Antitumor activity against human COLO205 cells xenografted in mouse assessed as tumor growth inhibition at 7.5 mg/kg, po q3d measured on day 35; type: functional; settings: COLO 205, 840 h
# [33] = Oral bioavailability in beagle dog at 10 mg/kg; type: ADME, organism-based, Canis lupus familiaris; settings: in vivo
# [34] = AUC ratio of drug uptake from brain to plasma in rat; type: ADME
# [35] = AUC in beagle dog at 10 mg/kg, po; type: ADME, organism-based, Canis lupus familiaris; set-up: dose 10 mg/kg, route oral; settings: plasma
# [36] = Antitumor activity against human COLO205 cells xenografted in mouse assessed as tumor growth inhibition at 5 mg/kg, po q3d measured on day 35; type: functional; settings: COLO 205, 840 h
# [37] = AUC in Sprague-Dawley rat at 10 mg/kg, po; type: ADME, organism-based; set-up: dose 10 mg/kg, route oral; settings: plasma
# [38] = Antitumor activity against human U373 cells xenografted in mouse assessed as tumor growth inhibition at 7.5 mg/kg, po q3d measured on day 35; type: functional, U-373MG ATCC; settings: 840 h
# [39] = AUC ratio of drug uptake from brain to plasma in mouse; type: ADME, organism-based
# [40] = Permeability across apical to basolateral side in human Caco2 cells; type: ADME, cell-based; settings: Caco-2, read-out: permeability
# [41] = Oral bioavailability in monkey; type: ADME, organism-based, Macaca mulatta; settings: rhesus monkey, in vivo
# [42] = Oral bioavailability in Sprague-Dawley rat at 10 mg/kg; type: ADME, organism-based; settings: in vivo
# [43] = Antitumor activity against human U373 cells xenografted in mouse assessed as tumor growth inhibition at 5 mg/kg, po q3d measured on day 35; type: functional, U-373MG ATCC; settings: 840 h
# [44] = Cmax in beagle dog at 10 mg/kg, po; type: ADME, organism-based, Canis lupus familiaris; set-up: dose 10 mg/kg, route oral; settings: in vivo
smiles,measurement,setting,value
CC(=O)N1N=C(c2cc(F)ccc2F)SC12CCNc1ccccc12 (centres undefined),EC50,[1],179 nM
CC(=O)N1N=C(c2cc(F)ccc2F)S[C@@]12c1cccc(F)c1OC[C@H]2CCN,AUC,[2],1.3 µM·h
same,EC50,[1],5 nM
same,AUC,[3],1.5 µM·h
same,Cmax,[4],430 nM
same,clearance,[5],136 mL/min/kg
same,bioavailability,[6],46%
CNCCCC(=O)N1N=C(c2cc(F)ccc2F)SC12CCOc1ccccc12 (centres undefined),EC50,[1],367 nM
CC(=O)N1N=C(c2cc(F)ccc2F)SC12COc1ccccc12 (centres undefined),EC50,[1],246 nM
CC(C)(C)C(=O)N1N=C(c2cc(F)ccc2F)SC12CCOc1ccccc12 (centres undefined),EC50,[1],> 1000 nM
COCC(=O)N1N=C(c2cc(F)ccc2F)SC12CCOc1ccccc12 (centres undefined),EC50,[1],665 nM
CC(=O)N1N=C(c2cc(F)ccc2F)S[C@@]12c1ccccc1OC[C@H]2CCN,bioavailability,[7],12%
same,AUC,[8],0.8 µM·h
same,half-life,[9],1.8 h
same,Cmax,[10],600 nM
same,AUC,[11],1.4 µM·h
same,Cmax,[12],300 nM
same,Retention_time,[13],4.08 min
same,EC50,[1],2 nM
same,Activity,HCT-116 [14],70%
same,half-life,[15],2 h
same,Vd,[16],6.4 L/kg
same,AUC,[17],3.6 µM·h
same,AUC,[3],2.3 µM·h
same,Activity,HCT-116 [18],Active
same,clearance,[19],46 mL/min/kg
same,AUC,[20],3 µM·h
same,clearance,[5],90 mL/min/kg
same,half-life,[21],3.9 h
same,Vd,[22],8.6 L/kg
same,bioavailability,[23],9%
same,clearance,[24],13.7 mL/min/kg
same,Cmax,[25],100 nM
same,bioavailability,[26],9%
same,Activity,HCT-116 [27],Active
same,Vd,[28],3.9 L/kg
same,AUC,[29],0.3 µM·h
CC(=O)N1N=C(c2cc(F)ccc2F)S[C@@]12c1cc(F)c(F)cc1OC[C@H]2CCN,Cmax,[30],220 nM
same,AUC,[8],0.8 µM·h
same,Papp B→A,[31],11.5 ×10⁻⁶ cm/s
same,AUC,[2],7.9 µM·h
same,inhibition in vivo at 7.5 mg/kg,[32],126%
same,EC50,[1],3 nM
same,bioavailability,[33],44%
same,AUC,[3],4.6 µM·h
same,clearance,[19],49 mL/min/kg
same,AUC,[20],3.1 µM·h
same,Kp,[34],4
same,Cmax,[4],1030 nM
same,clearance,[5],42 mL/min/kg
same,AUC,[35],6.9 µM·h
same,inhibition in vivo at 5 mg/kg,[36],116%
same,bioavailability,[6],87%
same,AUC,[37],2.5 µM·h
same,inhibition in vivo at 7.5 mg/kg,[38],69%
same,Kp,[39],4
same,Papp A→B,[40],10.6 ×10⁻⁶ cm/s
same,clearance,[24],12 mL/min/kg
same,bioavailability,[41],53%
same,bioavailability,[42],64%
same,inhibition in vivo at 5 mg/kg,[43],31%
same,Cmax,[44],500 nM
CCC(=O)N1N=C(c2cc(F)ccc2F)SC12CCOc1ccccc12 (centres undefined),EC50,[1],452 nM
NCCC(=O)N1N=C(c2cc(F)ccc2F)SC12CCOc1ccccc12 (centres undefined),EC50,[1],> 500 nM
CC(=O)N1N=C(c2cc(F)ccc2F)S[C@@]12c1ccccc1OC[C@@H]2CCN,Retention_time,[13],5.4 min
same,EC50,[1],11 nM
O=C(CO)N1N=C(c2cc(F)ccc2F)SC12CCOc1ccccc12 (centres undefined),EC50,[1],615 nM
CC(=O)N1N=C(c2cc(F)ccc2F)S[C@]12c1ccccc1OC[C@@H]2CCN,Retention_time,[13],2.33 min
same,EC50,[1],> 1000 nM
